Starred links: 1 amine or outer side, 2 acyl side, 3 side chain; linkers in the order of their positions; H or OH if unused. Non-standard residues stand in square brackets, D forms with d. Residues, ends and D or L forms follow the SMILES beside them. Groups on a side chain read outwards from the residue. *: point of attachment. Ethylenediamine = C(CN[*:2])N[*:1]; Hyp = O=C(O)[C@@H]1C[C@@H](O)CN1; Phg = N[C@H](C(=O)O)c1ccccc1; CO = O=C([*:1])[*:2]; Bn = c1ccc(C*)cc1
Experiments:
sst4 = test system: sst4; set-up: method as in PMID 11980628; details: ref [14]; cited from earlier work
Text: Pasireotide is an injectable somatostatin analog. […] The five somatostatin receptors (sst 1 to 5) are expressed in various organs under normal physiological conditions. Somatostatin analogs activate these receptors, which in turn reduce cell activity and inhibit hormone synthesis. Octreotide and lanreotide, which are currently used, have strong affinities for the sst2 receptor and moderate affinities, if any, for the other receptor types.

[1] = test system: female patients undergoing mastectomy with axillary lymph node dissection for breast cancer; experiment: Phase 2 trial, secondary endpoints: post-operative course (drainage, aspirations, healing, hospital stay); format: in vivo, human
[2] = cited from earlier work
Description: Differences between the results reported by Carcoforo [10] and Mahmoud and our results could be partially explained. First, the clinical practices were different. In our practice, drains were removed before the seventh post-operative day, whereas in the studies by Carcoforo [10] and Mahmoud^11 the mean duration of drainage was between 7 and 25 days. Second, the other authors both used octreotide 0.1 mg three times a day subcutaneously for 5 [10] or 7 [11] days, starting on the first postoperative day. In our study, we chose a long-acting release formulation of pasireotide (pasir ... || The gradual release form must be injected intramuscularly prior to surgery. An effective plateau concentration is obtained after 10 days regardless of the selected dosage (20, 40, or 60 mg) (3).

[3] = test system: female patients undergoing mastectomy with axillary lymph node dissection for breast cancer; experiment: Phase 2 randomised trial, primary outcome: absence of post-operative axillary symptomatic lymphocele; details: versus placebo group
Description: All female patients for whom mastectomy and ALND were indicated were eligible for the study, including patients who had received neo-adjuvant chemotherapy. Main exclusion criteria were related to diabetes, cardiac insufficiency, disorder of cardiac conduction or hepatic failure. […] This choice of these variables was decided because they could influence the rate of post-operative lymphocele and so created bias. Randomization was carried out by the Statistics Team at Hôpital Saint Louis in charge of the project (only one randomization list for both centers). […]
The postoperative visit was 28 ± 4 days following surgery (V5), and a routine lymphocele aspiration was warranted and considered positive if the aspirated volume exceeded 120 cc. Again, data on the number of repeated lymphocele aspirations and the volume were collected, and adverse events were recorded.
The primary motivation for this sequential Bayesian strategy were: (1) the uncertainty about the effect of the procedure, (2) the small sample and (3) it allows continuous monitoring of outcomes throughout the trial. […] Additionally, based on the subsequent distribution experimental group, early stopping criteria were calculated to allow early termination of the trial for inefficacy if there was substantial evidence that the estimated response rate was unacceptably low compared to the expected minimal response rate of 60%. […]

sst5 = test system: sst5; set-up: method as in PMID 11980628; details: ref [14]; cited from earlier work
Text: (§1) The five somatostatin receptors (sst 1 to 5) are expressed in various organs under normal physiological conditions. Somatostatin analogs activate these receptors, which in turn reduce cell activity and inhibit hormone synthesis. Octreotide and lanreotide, which are currently used, have strong affinities for the sst2 receptor and moderate affinities, if any, for the other receptor types.

sst3 = test system: sst3; set-up: method as in PMID 11980628; details: ref [14]; cited from earlier work
Text: as §1

sst1 = details: ref [14]; cited from earlier work
Text: as §1

[4] = test system: female patients undergoing mastectomy with axillary lymph node dissection for breast cancer; experiment: Phase 2 trial, safety / adverse events; format: in vivo, human; details: treatment group; patient with insulin-dependent diabetes hospitalised for hyperglycaemia
Description: The screening was performed during the pre-surgical visit. At the baseline visit (V1) 7 to 10 days prior to surgery, patients signed the informed consent, and pasireotide or the placebo were injected. In addition, a blood sample for pharmacokinetic monitoring was taken. On the day of surgery or the day after surgery (V2), data concerning the operation (type of surgery, duration, intraoperative complications, type and number of drains) and recording of adverse events were performed. On the day of discharge (V3), the summary of the daily collection of postoperative data was completed (daily and total drainage volumes, dates on which drains were removed and overall duration of drainage, postoperative complications, whether aspiration of a symptomatic lymphocele was required, length of hospital stay and recording of adverse events).
A second blood sample for pharmacokinetic monitoring was taken during this visit.
Follow-up visits at 2 months (V6) allowed the recording of late adverse events.

[5] = test system: patients after axillary node dissection in breast cancer; set-up: method as in PMID 12648685; details: p = 0.0001, ref [10], cited from earlier work
[6] = test system: patients after axillary node dissection in breast cancer; set-up: method as in PMID 17214811; details: p = 0.0001, ref [11], cited from earlier work
[7] = test system: renal transplantation patients; set-up: method as in PMID 16757259; details: patients treated with octreotide; ref [22]; cited from earlier work
sst2 = test system: sst2; set-up: method as in 2 sources, ref [14] = [14]; PMID 11980628; doi:10.1530/eje.0.1460707; 14 Bruns C , Lewis I , Briner U , Meno-Tetang G , Weckbecker G . SOM230: a novel somatostatin peptidomimetic with broad somatotropin release inhibiting factor (SRIF) receptor binding and a unique anti ||| ref [14] (a number printed in a supplementary file, which may have a reference list of its own: not looked up in the article's list); details: ref [14]; cited from earlier work
Text: The five somatostatin receptors (sst 1 to 5) are expressed in various organs under normal physiological conditions. Somatostatin analogs activate these receptors, which in turn reduce cell activity and inhibit hormone synthesis. Octreotide and lanreotide, which are currently used, have strong affinities for the sst2 receptor and moderate affinities, if any, for the other receptor types. […] Like natural somatostatin and known analogs, its pharmaceutical efficacy depends on its binding to somatostatin receptors. There are five of these (sst 1 to 5); they are expressed in various bodily tissues under normal physiological conditions. Somatostatin analogs activate these receptors, which in turn reduce cell activity and inhibits hormone synthesis. (7). Octreotide and lanreotide, which are currently used, have a strong affinity for the sst2 receptor and moderate affinity, if any, for the other types.

[8] = test system: women with breast cancer undergoing ALND; details: compared to placebo, p = 0.035; ref [12]; cited from earlier work
Description: More recently, Gauthier et al. have reported the results of a phase 3, double-blind, randomized study using Lanreotide Autogel 90 mg LAR to reduce lymphorrhea volumes in the axillary drain during the first 4 postoperative days.

[9] = pasireotide LAR 40 and 60 mg, ref [21]

## NCCCC[C@@H]1NC(=O)[C@@H](Cc2c[nH]c3ccccc23)NC(=O)[C@H](c2ccccc2)NC(=O)[C@@H]2C[C@@H](OC(=O)NCCN)CN2C(=O)[C@H](Cc2ccccc2)NC(=O)[C@H](Cc2ccc(OCc3ccccc3)cc2)NC1=O [Pasireotide] (cyclo([Hyp]([CO-Ethylenediamine])[Phg][dW]KY(Bn)F))
sst4
  Affinity for sst4: none
[1]; Fig 3, Day 1
  Daily flow axillary drain: 50 mL
  Daily flow mastectomy drain: 52,5 ml
[1]; Fig 3, Day 2
  Daily flow axillary drain: 50 mL
  Daily flow mastectomy drain: 40 mL
[1]; Fig 3, Day 3
  Daily flow axillary drain: 65 mL
  Daily flow mastectomy drain: 38 mL
[1]; Fig 3, Day 4
  Daily flow axillary drain: 50 mL
  Daily flow mastectomy drain: 40 mL
[1]; Fig 3, Day 5
  Daily flow axillary drain: 75 mL
  Daily flow mastectomy drain: 41 mL
[1]; Fig 3, Day 6
  Daily flow axillary drain: 50 mL
  Daily flow mastectomy drain: 40 mL
[1]; Fig 3, Day 7
  Daily flow axillary drain: 35 mL
  Daily flow mastectomy drain: 30 mL
[1]; median [IQR]
  Length of time to onset of adjuvant chemotherapy: 54 [37.5,60] days
  Repeated lymphocele aspirations, total volume: 270 [135,415] ml
[1]; median [IQR], n = 42
  Duration of drainage, axillary drain: 3 [2,5] days
  Duration of drainage, mastectomy drain: 2.5 [1.75,4] days
  Length of the hospital stay: 5 [4,6] days
  Total flow, axillary drain: 165 [81,400.2] ml
  Total flow, mastectomy drain: 132.5 [55.5,226] ml
[1]; treatment group
  Patients who underwent systematic lymphocele aspiration on day 28: Twelve
[2]; gradual release form i.m., regardless of dosage (20, 40, or 60 mg), ref (3) Schmid et al AACE 2005
  Time to effective plateau concentration: 10 days
[2]; [9]
  Time of first concentration peak after administration: 1 days
  Time of second slow-release peak with maximum concentrations: ~20 days
[2]; pasireotide LAR, ref [21]
  Day from which the effect was obtained after injection: seventh
  Duration for which the effect remained: up to 30 days
[2]; patients with neuroendocrine tumors, ref [23]
  Residual concentration at day 28: 16.5 ng/mL
[3]
  Decrease in symptomatic lymphocele development in treated patients: 12.2%
sst5
  Affinity for sst5 relative to octreotide: 40 times greater
sst3
  Affinity for sst3 relative to octreotide: 5 times greater
sst1
  Affinity for sst1 relative to octreotide: 30 times greater
[4]
  Serious adverse events: one

## Octreotide
sst4
  Affinity for sst4: none
[5]; subcutaneous octreotide in immediate postoperative period, untreated group 94.6 ml
  Daily drainage volume: 65.4 mL
[5]; untreated group 16.7 days
  Time of drain removal after surgery: 7.1 days
[6]; control 90%
  Need for postoperative aspiration of lymphoceles: 40%
[6]; control 145 ml
  Mean daily drainage volume: 104 mL
[6]; control 25 days
  Total duration of drainage: 12.7 days
[7]
  Duration of lymphatic leakage following transplantation: shorter duration
  Incidence of lymphocele formation after drain removal: lower incidence
sst2
  Affinity for the sst2 receptor, in words: strong

## lanreotide
[8]
  Lymphorrhea volume, patients who only underwent an axillary dissection: significantly reduced
sst2
  Affinity for the sst2 receptor, in words: strong

From article PMC4900597, “Evaluation of the Effects of Pasireotide LAR Administration on Lymphocele Prevention after Axillary Node Dissection for Breast Cancer: Results of a Randomized Non-Comparative Phase 2 Study” (PLoS ONE, 2016)
